Each structure is given as a SMILES string. Residues, ends and D or L forms follow the SMILES beside them.

Usually melting point stands for the temperature, or range, at which the solid turns liquid. The molecule `CC(C)NC(=O)c1nc(Cl)c(Cl)[nH]1` showed a melting point of 150 °C.

For the molecule `Cc1cc(Cl)c(Cl)cc1C(=O)O`, the melting point fell in the range of 176 to 178 °C.

As for `NC(=O)N(c1ccccc1)c1nc(Cl)nc(Cl)n1`, the melting point lay within 151 to 154 °C.

`CCOC(=O)CC(NC(=O)c1cccc(NC(=O)c2cnc(NC(=N)N)s2)c1)c1ccccc1` (racemic) showed a melting point of 149 °C.

`CCc1ccc(C=NNC(=O)c2ccc(O)cc2)s1` came in with a melting point of 194 °C.

Take `O=C(NCCCCCNC(=O)c1ccc2c(c1)OCO2)c1ccc2c(c1)OCO2`: the melting point was in the range of 158 to 160 °C.

Regarding `CCOC(=O)c1sc(N)nc1-c1ccc(F)cc1`, the melting point lay within 205 to 208 °C.

In turn, `Nc1nc(C(F)(F)F)cc(=O)n1N` displayed a melting point of 215 to 218 °C.

Molecule `CN(C)C=Nc1cc(Cc2c(Cl)cccc2Cl)nc(Nc2ccc(C#N)cc2)n1` registered a melting point of 175 to 180 °C.

In turn, `O=C1c2cccc(Br)c2CN1Cc1cccc(C(F)(F)F)c1` registered a melting point of 119 to 120 °C.

Molecule `CN(C)CC1(CO)C(O)C(O)C(O)CN1C` (stereo not given) had a melting point of 76 °C.

As to `CCOCc1nc2c(N)nc3cc(-c4ccccc4)cnc3c2n1CC(C)(C)O`, the melting point lay in the range of 158 to 159 °C.

Turning to `FC(F)(F)CSc1nc2ccccc2[nH]1`, the melting point lay in the range of 148 to 150 °C.

In turn, `CCOC(=O)Cc1ccc(-c2nc(CCl)c(C)o2)cc1` gave a melting point of 87 to 88 °C.

`COc1ccc(N=C2C=CC(=O)C=C2)c(CO)c1` registered a melting point of 87 to 89 °C.

The molecule `Cc1ccc(N2CCCN(c3ccnc4sc(C(N)=O)c(N)c34)CC2)cc1F` had a melting point of 79 to 83 °C.

Turning to `Cn1cccc1C(=NOCc1cccs1)C(=O)O`, the melting point lay within 70 to 71 °C.

Turning to `COc1cc(OCC2CCCCC2)ccc1/C=C/c1cc(/C=C/c2ccc3cc[nH]c3c2)[nH]n1`, the melting point was in the range of 104 to 108 °C.

`CCN(CC)C(=O)CCc1cc(-c2ccc(Cl)cc2)n(-c2ccc(OC)cc2)n1`: the melting point is 111 to 112 °C.

`CC(C)NCC(O)COc1ccccc1-n1cccc1` (stereo not given): the melting point was in the range of 80 to 81 °C.

Turning to `CCOC(=O)c1c(NCC(=O)OCCCC(=O)c2ccccc2)c2c(Cl)cc(Cl)cc2n1C(=O)OC(C)(C)C`, the melting point was 129 to 130 °C.

Turning to `CC(C)S(=O)(=O)N1CCN(Cc2ccc(COc3cccc4c3CN(C3CCC(=O)NC3=O)C4=O)cc2)CC1` (stereo not given), the melting point is 233 to 235 °C.

With `CN(CCCNc1ncc(Cc2ccc(F)cc2)c(=O)[nH]1)c1ccccn1`, the melting point was determined as 70 °C.

Consider `COc1ccc(-c2sc3ccccc3c2C(=O)c2ccc(O)cc2)cc1`, for which the melting point lay in the range of 188 to 189 °C.

`COc1ccc(C(=O)c2ccc(OCCc3nc(-c4ccccc4)oc3C)cc2)c(OC(C)(C)C(=O)O)c1` registered a melting point of 81 to 82 °C.

Consider `NC(=S)C1(c2ccccn2)SCCCS1`, for which the melting point was found to be 214 °C.

In turn, `CN(C)C(=O)Nc1ccc(O)cc1` had a melting point of 178 to 179 °C.

Consider `CC1CCN(c2cc(F)cc(C(=O)Nc3ccc(Oc4ccnc(NC5CCCC5)n4)c4ccccc34)c2)CC1`, for which the melting point lay within 88 to 90 °C.

In turn, `NC(=O)CNC(=O)c1sc(Nc2ccccc2)c2c1CCc1cnoc1-2` gave a melting point of 213 to 214 °C.

`COc1ccc([N+](=O)[O-])c(C=C2C(=O)NC(=O)N2C)c1` returned a melting point of 257 to 260 °C.

The molecule `CC(C)(C)C(=O)C=C(C(=O)C(C)(C)C)n1cncn1` had a melting point of 107 to 108 °C.

As to `COc1nc(OC)nc(C2CC2)n1`, the melting point lay within 68 to 70 °C.

For the molecule `O=C(O)c1cc(Br)cc([N+](=O)[O-])c1NCc1ccccc1Cl`, the melting point lay within 159 to 161 °C.

In turn, `CC(C)c1cccc(C(C)C)c1NC(=O)Cc1ccccc1NCCc1ccccc1` returned a melting point of 120 to 123 °C.

Turning to `CC(C)Oc1cc(CCC(=O)O)n(Cc2ccc(Cl)cc2Cl)n1`, the melting point was in the range of 114 to 115 °C.

In turn, `O=C1COC(C#Cc2cccnc2)(C(F)(F)F)c2cc(Cl)ccc2N1` (stereo not given) yielded a melting point of 219 to 221 °C.

`COc1cc(-c2nc(N(C)CCO)c3c(C)c(C#N)sc3n2)cc(OC)c1OC` had a melting point of 164 to 166 °C.

In the case of `CC(C)(C)OC(=O)Nc1cc(N)cc(Cl)c1`, the melting point lay within 85 to 87 °C.

With `O=CNc1c(-c2ccccc2)sc2ccccc12`, the melting point lay within 78 to 79 °C.

`COc1cccc(OC)c1-c1cc(C(=O)O)nn1-c1ccc(C(N)=O)cc1C` gave a melting point of 275 to 276 °C.

The molecule `Cc1cc(SC2=C(O)C[C@@](CCc3cccc(O)c3)(C3CCCC3)OC2=O)c(C(C)(C)C)cc1CO` gave a melting point of 128 to 132 °C.

`N[C@@H]1CN2CCC1CC2` had a melting point of 118 to 121 °C.

For `CCn1cc(C(=O)C(=O)O)c2ccc(-c3ccc(OC(F)(F)F)cc3)cc21`, the melting point was in the range of 204 to 205 °C.

`COc1ccc(S(=O)(=O)c2ccnc(C)c2C)cc1` displayed a melting point of 84 to 85 °C.

The molecule `Clc1cccc(C(c2ccnc3ccccc23)n2cnnc2)c1` (stereo not given) yielded a melting point of 203 °C.

`Cc1nc2cccc(OCC(C)(C)NC(=O)c3cccc(O)c3)c2c(N)c1C(=O)O` had a melting point of 195 to 198 °C.

In turn, `CCCNc1cc(-c2c(-c3cccc(C)c3)nc3cccnn23)ccn1` had a melting point of 128 to 129 °C.

The molecule `C=CCN(C)CCNc1ccnc2cc(Cl)ccc12` returned a melting point of 91 to 93 °C.

As to `N#CC1=C(c2c[nH]c3ccccc23)Nc2n[nH]cc2C1c1cccc2nonc12` (stereo not given), the melting point came out at 238 °C.

Molecule `CCOC(=O)c1cn(-c2cc(N(C)C)c(F)cc2F)c2nc(Cl)c(F)cc2c1=O` displayed a melting point of 158 to 163 °C.

Consider `Cc1c(NC(=O)CC(C)(C)C)c(C)c2c(c1C(=O)c1ccccc1)OC[C@@H]2c1ccc(C(C)C)cc1`, for which the melting point fell in the range of 205 to 206 °C.

The molecule `COc1cc(S(C)(=O)=O)c(F)cc1OCCCl` registered a melting point of 85 to 87 °C.

On to `COc1cc(OCc2ccncc2)ccc1/C=C/c1cc(/C=C/c2c[nH]c3ccccc23)n[nH]1`, for which the melting point was in the range of 128 to 139 °C.

In turn, `O=C(Nc1ccc2cc(CN3CCCCC3)ccc2c1)N1CCC(c2ccc(Cl)cc2)CC1` registered a melting point of 231 to 232 °C.

Turning to `OCCN(CCO)CCCNc1nc2cc(Cl)c(Cl)cc2nc1-c1ccccn1`, the melting point is 88 to 90 °C.

In turn, `CCc1nc(Cl)c([N+](=O)[O-])c(NC(C)C)n1` registered a melting point of 51 to 52 °C.

Regarding `Cn1nc(N)c(C#N)c1N`, the melting point is 194 °C.

As to `CN(C)C1(c2ccccc2)CCC(CNC(=O)N2CC=C(c3c[nH]c4ccccc34)CC2)CC1` (stereo not given), the melting point lay within 112 to 115 °C.

`CN(C)c1ccc(C2OC(C)(C)N=C2c2cccc(Cl)c2)cc1` (stereo not given) showed a melting point of 96 to 97 °C.

Regarding `Cc1cc2c(-c3ccccc3N)nc(N3CCNCC3)nc2s1`, the melting point was 232 to 236 °C.

`NC(=O)CNC(=O)[C@@H]1CCCN1` (H-Pro-Gly-NH2) yielded a melting point of 124 to 127 °C.

Take `CC(C)(C)OC(=O)N1CCC(O)(CS(=O)(=O)NC(c2ccccc2)c2ccccc2)CC1`: the melting point lay in the range of 121 to 123 °C.

The molecule `CN1Cc2c(C(=O)O)ncn2-c2cccnc2C1=O` returned a melting point of 292 to 295 °C.

`COc1ccc(CSc2ccc([N+](=O)[O-])cc2CNCCc2ccccc2)cc1`: the melting point is 80 to 85 °C.

In the case of `CCCCCC(=O)NC(Cc1cnc(SCCC)n1Cc1ccccc1Cl)C(=O)O` (stereo not given), the melting point fell in the range of 118 to 121 °C.

For the origin of these results see a melting point compilation (Tetko et al.; mined from patent text by program, amines drawn as free bases though some values may be those of a salt).
